The values that follow come from publication PMC3644221 (Toxicology letters, 2013).

In this experiment the target is CYP1A1 (Homo sapiens, UniProt P04798). In words: inhibition of CYP1A1-specific Luciferin-CEE activity. In kind it is biochemical.

Molecules are shown by their SMILES.

Chain of CYP1A1 (P04798 whole entry): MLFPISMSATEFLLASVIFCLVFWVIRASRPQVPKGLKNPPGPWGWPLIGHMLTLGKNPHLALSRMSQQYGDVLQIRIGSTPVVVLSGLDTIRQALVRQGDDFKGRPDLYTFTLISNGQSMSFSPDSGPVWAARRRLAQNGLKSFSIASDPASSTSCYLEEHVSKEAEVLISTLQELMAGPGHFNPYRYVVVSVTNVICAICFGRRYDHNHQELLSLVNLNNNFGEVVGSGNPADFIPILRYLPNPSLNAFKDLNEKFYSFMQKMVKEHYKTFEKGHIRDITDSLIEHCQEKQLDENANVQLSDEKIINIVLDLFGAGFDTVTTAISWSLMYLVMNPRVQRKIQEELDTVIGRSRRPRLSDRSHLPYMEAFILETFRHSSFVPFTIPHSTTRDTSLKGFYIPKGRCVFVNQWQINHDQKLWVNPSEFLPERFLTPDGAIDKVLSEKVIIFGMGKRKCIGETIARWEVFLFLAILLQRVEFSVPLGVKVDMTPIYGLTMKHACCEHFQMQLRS

As usually defined, the IC50 is the midpoint of a concentration-inhibition curve. A high value points to lower potency. Compound `Oc1cc(O)c2cc(O)c(-c3cc(O)c(O)c(O)c3)[o+]c2c1` [delphinidin] registered an IC50 of 77 µM. That is a double-digit micromolar value. For the compound `Oc1ccc(-c2[o+]c3cc(O)cc(O)c3cc2O)cc1` [pelargonidin], the IC50 is 33 µM. Against the preceding compound, the IC50 is about 2.3-fold lower.
